Laboratory results taken from US10894784B2, “Heteroarylbenzimidazole compounds” (BAYER PHARMA AKTIENGESELLSCHAFT, priority 2015, dated 2021).
Read-outs that look alike come from different tables or passages of the source.

Biological target: TBK1 (Homo sapiens (Human), UniProt Q9UHD2)
Test: TBK1 low ATP kinase assay (in vitro assay 1)
Type: biochemical
[1] = in vitro assay 1, read-out: TBK1 low ATP kinase assay IC50

Chain of TBK1 (Q9UHD2 whole entry): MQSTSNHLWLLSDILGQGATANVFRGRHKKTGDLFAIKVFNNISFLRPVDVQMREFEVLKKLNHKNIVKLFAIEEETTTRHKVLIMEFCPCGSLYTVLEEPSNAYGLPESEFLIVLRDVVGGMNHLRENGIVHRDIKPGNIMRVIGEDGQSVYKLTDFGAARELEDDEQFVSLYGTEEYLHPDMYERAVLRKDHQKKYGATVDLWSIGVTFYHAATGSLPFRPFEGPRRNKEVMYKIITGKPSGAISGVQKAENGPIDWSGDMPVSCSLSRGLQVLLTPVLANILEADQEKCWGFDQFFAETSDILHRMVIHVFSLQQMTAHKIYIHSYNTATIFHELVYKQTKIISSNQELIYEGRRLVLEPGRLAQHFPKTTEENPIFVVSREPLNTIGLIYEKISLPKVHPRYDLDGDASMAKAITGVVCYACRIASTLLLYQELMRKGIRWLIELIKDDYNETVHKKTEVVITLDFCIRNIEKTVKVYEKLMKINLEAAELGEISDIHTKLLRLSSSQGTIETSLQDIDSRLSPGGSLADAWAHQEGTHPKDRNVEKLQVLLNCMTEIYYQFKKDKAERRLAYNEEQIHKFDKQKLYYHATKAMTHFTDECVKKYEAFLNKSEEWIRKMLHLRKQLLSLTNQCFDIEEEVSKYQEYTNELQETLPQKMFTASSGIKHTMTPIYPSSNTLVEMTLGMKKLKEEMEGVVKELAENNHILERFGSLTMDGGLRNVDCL

Row | SMILES | IC50 [1] [µM] | IC50 (TBK1 low ATP kinase assay IC50, in vitro assay 1) [µM]
1 | CCn1cc(-c2ccc3nc(Nc4cc(CN5CCN(C(=O)CC(F)(F)F)CC5)ccn4)[nH]c3c2)cn1 [Example 38.02, 1-{4-[(2-{[6-(1-ethyl-1H-pyrazol-4-yl)-1H-benzimidazol-2-yl]amino}pyridin-4-yl)methyl]piperazin-1-yl}-3,3,3-trifluoropropan-1-one] | 0.0504 | –
2 | Cc1noc(-c2ccc3nc(Nc4cc(CN5CCN(C(=O)C(C)(C)O)CC5)ccn4)[nH]c3c2)n1 [Example 101.16, 2-hydroxy-2-methyl-1-{4-[(2-{[6-(3-methyl-1,2,4-oxadiazol-5-yl)-1H-benzimidazol-2-yl]amino}pyridin-4-yl)methyl]piperazin-1-yl}propan-1-one] | 0.19 | –
3 | Cc1nccc(-c2ccc3nc(Nc4cc(CN5CCN(C(=O)C6CC6)CC5)ccn4)[nH]c3c2)n1 [Example 24.01.03, cyclopropyl{4-[(2-{[6-(2-methylpyrimidin-4-yl)-1H-benzimidazol-2-yl]amino}pyridin-4-yl)methyl]piperazin-1-yl}methanone] | 0.0432 | –
4 | CC(c1ccnc(Nc2nc3ccc(-c4cnn(CC5CC5(F)F)c4)cc3[nH]2)c1)N1CCN(C(=O)OC(C)(C)C)CC1 (single isomer, unassigned) [Example 55.01.01, tert-butyl 4-[(1R or 1S)-1-(2-{[6-(1-{[(1R or 1S)-2,2-difluorocyclopropyl]methyl}-1H-pyrazol-4-yl)-1H-benzimidazol-2-yl]amino}pyridin-4-yl)ethyl]piperazine-1-carboxylate] | 0.0055 | –
5 | O=C(CC(F)(F)F)N1CCN(Cc2ccnc(Nc3nc4ccc(-c5ccnc(OCC6CC6)n5)cc4[nH]3)c2)CC1 [Example 62.01.03, 1-(4-{[2-({6-[2-(cyclopropylmethoxy)pyrimidin-4-yl]-1H-benzimidazol-2-yl}amino)pyridin-4-yl]methyl}piperazin-1-yl)-3,3,3-trifluoropropan-1-one] | 0.00338 | –
6 | Cc1nccc(-c2ccc3nc(Nc4cc(C(C)N5CCN(C(=O)C6CC6)CC5)ccn4)[nH]c3c2)n1 (single isomer, unassigned) [Example 24.05.04.A, cyclopropyl{4-[(1R or 1S)-1-(2-{[6-(2-methylpyrimidin-4-yl)-1H-benzimidazol-2-yl]amino}pyridin-4-yl)ethyl]piperazin-1-yl}methanone] | 0.00667 | –
7 | CN(C)c1nccnc1-c1ccc2nc(Nc3cc(CN4CCN(C(=O)CC(F)(F)F)CC4)ccn3)[nH]c2c1 [Example 196.02, 1-(4-{[2-({6-[3-(dimethylamino)pyrazin-2-yl]-1H-benzimidazol-2-yl}amino)pyridin-4-yl]methyl}piperazin-1-yl)-3,3,3-trifluoropropan-1-one] | 1.83 | –
8 | Cc1nccc(-c2ccc3nc(Nc4cc(C(C)N5CCN(C(=O)C6CCC6)CC5)ccn4)[nH]c3c2)n1 (single isomer, unassigned) [Example 24.05.02.A, cyclobutyl{4-[(1R or 1S)-1-(2-{[6-(2-methylpyrimidin-4-yl)-1H-benzimidazol-2-yl]amino}pyridin-4-yl)ethyl]piperazin-1-yl}methanone] | 0.011 | –
9 | COc1c(NCC2CC2)ncnc1-c1ccc2nc(Nc3cc(CN4CCN(C(=O)C5CC5)CC4)ccn3)[nH]c2c1 [Example 109.01.03, cyclopropyl[4-({2-[(6-{6-[(cyclopropylmethyl)amino]-5-methoxypyrimidin-4-yl}-1H-benzimidazol-2-yl)amino]pyridin-4-yl}methyl)piperazin-1-yl]methanone] | 0.0087 | –
10 | COCc1cc(-c2ccc3nc(Nc4cc(CN5CCN(C(=O)C6(C(F)(F)F)CC6)CC5)ccn4)[nH]c3c2)ncn1 [Example 79.03, (4-{[2-({6-[6-(methoxymethyl)pyrimidin-4-yl]-1H-benzimidazol-2-yl}amino)pyridin-4-yl]methyl}piperazin-1-yl)[1-(trifluoromethyl)cyclopropyl]methanone] | 0.0033 | –
11 | CC(C)Nc1ncnc(-c2ccc3nc(Nc4cc(CN5CCN(C(=O)OC(C)(C)C)CC5)ccn4)[nH]c3c2)c1F [Example 193.01, tert-butyl 4-{[2-({6-[5-fluoro-6-(propan-2-ylamino)pyrimidin-4-yl]-1H-benzimidazol-2-yl}amino)pyridin-4-yl]methyl}piperazine-1-carboxylate] | 0.0421 | –
12 | CN(c1cc(-c2ccc3nc(Nc4cc(CN5CCN(C(=O)OC(C)(C)C)CC5)ccn4)[nH]c3c2)ncn1)C1CCC1 [Example 156.01, tert-butyl 4-({2-[(6-{6-[cyclobutyl(methyl)amino]pyrimidin-4-yl}-1H-benzimidazol-2-yl)amino]pyridin-4-yl}methyl)piperazine-1-carboxylate] | 0.038 | –
13 | CN(C)c1cc(-c2ccc3nc(Nc4cc(CN5CCN(C(=O)CC(F)(F)F)CC5)ccn4)[nH]c3c2)ccn1 [Example 135.02, 1-(4-{[2-({6-[2-(dimethylamino)pyridin-4-yl]-1H-benzimidazol-2-yl)amino)pyridin-4-yl]methyl}piperazin-1-yl)-3,3,3-trifluoropropan-1-one] | 0.023 | –
14 | CC(c1ccnc(Nc2nc3ccc(-c4cc(N5CCOCC5)ncn4)cc3[nH]2)c1)N1CCN(C(=O)CC(F)(F)F)CC1 (single isomer, unassigned) [Example 118.03, 3,3,3-trifluoro-1-(4-{(1R or 1S)-1-[2-({6-[6-(morpholin-4-yl)pyrimidin-4-yl]-1H-benzimidazol-2-yl}amino)pyridin-4-yl]ethyl}piperazin-1-yl)propan-1-one] | 0.0014 | –
15 | CCOc1cnc(C)cc1-c1ccc2nc(Nc3cc(CN4CCN(C(=O)CC5CC5)CC4)ccn3)[nH]c2c1 [Example 09.03, 2-cyclopropyl-1-{4-[(2-{[6-(5-ethoxy-2-methylpyridin-4-yl)-1H-benzimidazol-2-yl]amino}pyridin-4-yl)methyl]piperazin-1-yl}ethanone] | 0.324 | –
16 | CC(C)Oc1cnccc1-c1ccc2nc(Nc3cc(CN4CCN(C(=O)C5CC5)CC4)ccn3)[nH]c2c1 [Example 06.02, cyclopropyl(4-{[2-({6-[3-(propan-2-yloxy)pyridin-4-yl]-1H-benzimidazol-2-yl}amino)pyridin-4-yl]methyl}piperazin-1-yl)methanone] | 0.00712 | –
17 | Cc1noc(-c2ccc3nc(Nc4cc(C(C)N5CCN(C(=O)C6CC6)CC5)ccn4)[nH]c3c2)n1 (single isomer, unassigned) [Example 16.06.03.A, cyclopropyl{4-[(1R or 1S)-1-(2-{[6-(3-methyl-1,2,4-oxadiazol-5-yl)-1H-benzimidazol-2-yl]amino}pyridin-4-yl)ethyl]piperazin-1-yl}methanone] | 0.0138 | –
18 | COc1nc(-c2ccc3nc(Nc4cc(CN5CCN(C(=O)CC(F)(F)F)CC5)ccn4)[nH]c3c2)cc(N(C)C)n1 [Example 189.02, 1-(4-{[2-({6-[6-(dimethylamino)-2-methoxypyrimidin-4-yl]-1H-benzimidazol-2-yl}amino)pyridin-4-yl]methyl}piperazin-1-yl)-3,3,3-trifluoropropan-1-one] | 0.0286 | –
19 | Cc1cc(-c2ccc3nc(Nc4cc(CN5CCN(C(=O)CC(F)(F)F)CC5)ccn4)[nH]c3c2)nc(C)n1 [Example 31.01, 1-{4-[(2-{[6-(2,6-dimethylpyrimidin-4-yl)-1H-benzimidazol-2-yl]amino}pyridin-4-yl)methyl]piperazin-1-yl}-3,3,3-trifluoropropan-1-one] | 0.0868 | –
20 | COCCOCCS(=O)(=O)N1CCN(Cc2ccnc(Nc3nc4ccc(-c5ncncc5OC)cc4[nH]3)c2)CC1 [Example 35.01.11, N-{4-[(4-{[2-(2-methoxyethoxy)ethyl]sulfonyl}piperazin-1-yl)methyl]pyridin-2-yl}-6-(5-methoxypyrimidin-4-yl)-1H-benzimidazol-2-amine] | 0.0286 | –
21 | CC(c1ccnc(Nc2nc3ccc(-c4ccncn4)cc3[nH]2)c1)N1CCN(C(=O)CC(F)(F)F)CC1 (racemic) [Example 23.04.03, (rac)-3,3,3-trifluoro-1-{4-[1-(2-{[6-(pyrimidin-4-yl)-1H-benzimidazol-2-yl]amino}pyridin-4-yl)ethyl]piperazin-1-yl}propan-1-one] | 0.00247 | –
22 | Cc1cc(-c2ccc3nc(Nc4cc(C(C)N5CCN(C(=O)C6CC6)CC5)ccn4)[nH]c3c2F)ncn1 (single isomer, unassigned) [Example 172.03, cyclopropyl{4-[(1R or 1S)-1-(2-{[7-fluoro-6-(6-methylpyrimidin-4-yl)-1H-benzimidazol-2-yl]amino}pyridin-4-yl)ethyl]piperazin-1-yl}methanone] | 0.015 | –
23 | Cc1noc(-c2ccc3nc(Nc4cc(C(C)N5CCN(C(=O)CC(F)(F)F)CC5)ccn4)[nH]c3c2)n1 (single isomer, unassigned) [Example 16.06.02.A, 3,3,3-trifluoro-1-{4-[(1R or 1S)-1-(2-{[6-(3-methyl-1,2,4-oxadiazol-5-yl)-1H-benzimidazol-2-yl]amino}pyridin-4-yl)ethyl]piperazin-1-yl}propan-1-one] | – | 0.105
24 | O=C(CC(F)(F)F)N1CCN(Cc2ccnc(Nc3nc4ccc(-c5cc(C6CCOCC6)ncn5)cc4[nH]3)c2)CC1 [Example 199.02, 3,3,3-trifluoro-1-(4-{[2-({6-[6-(tetrahydro-2H-pyran-4-yl)pyrimidin-4-yl]-1H-benzimidazol-2-yl}amino)pyridin-4-yl]methyl}piperazin-1-yl)propan-1-one] | 0.0419 | –
25 | CCOc1nccc(-c2ccc3nc(Nc4cc(C(C)N5CCN(C(=O)CC(F)(F)F)CC5)ccn4)[nH]c3c2)n1 (single isomer, unassigned) [Example 26.03.01.B, 1-{4-[(1S or 1R)-1-(2-{[6-(2-ethoxypyrimidin-4-yl)-1H-benzimidazol-2-yl]amino}pyridin-4-yl)ethyl]piperazin-1-yl}-3,3,3-trifluoropropan-1-one] | 0.0195 | –
26 | CC(c1ccnc(Nc2nc3ccc(-c4cc(N5CCCC5)ncn4)cc3[nH]2)c1)N1CCN(C(=O)CC(F)(F)F)CC1 (single isomer, unassigned) [Example 117.03, 3,3,3-trifluoro-1-(4-{(1R or 1S)-1-[2-({6-[6-(pyrrolidin-1-yl)pyrimidin-4-yl]-1H-benzimidazol-2-yl}amino)pyridin-4-yl]ethyl}piperazin-1-yl)propan-1-one] | 0.00049 | –
